Key:
Assay in all cases: Cancer cell growth inhibition (CellTiter-Glo)
Type in all cases: cell-based
[1] = tested on: Caki-1; details: Homo sapiens; Caki-1, clear cell renal cell carcinoma; 144 hours
Method: (§1) Cells were plated into 384-well plates at a pre-specified density in fetal bovine serum-containing media. Cells were treated with compound or vehicle (DMSO) 24 hrs later, and a day zero plate was collected for analysis. Test compound plates were incubated continuously for 144 hours before cells and cell growth was assessed using a luminescent cell viability assay (CellTiter-Glo, Promega). The GI50 was determined by correcting for the cell count at time zero (time of treatment) and plotting data as percent growth relative to vehicle-treated cells.

[2] = tested on: TYK-nu; details: high grade ovarian serious adenocarcinoma, 144 hours
Method: as §1

[3] = tested on: EBC-1; details: Homo sapiens; EBC-1, squamous cell lung carcinoma; 144 hours
Method: as §1

[4] = tested on: SK-LU-1; details: Homo sapiens; SK-LU-1, lung adenocarcinoma; 144 hours
Method: as §1

[5] = tested on: NCI-H2087; details: Homo sapiens; NCI-H2087, lung adenocarcinoma; 144 hours
Method: as §1

[6] = tested on: NUGC-3; details: Homo sapiens; NUGC-3, gastric adenocarcinoma; 144 hours
Method: as §1

[7] = tested on: HCC827; details: Homo sapiens; HCC827, lung adenocarcinoma; 144 hours
Method: as §1

[8] = tested on: LN-18; details: Homo sapiens; LN-18, glioblastoma; 144 hours
Method: as §1

[9] = tested on: A101D; details: Homo sapiens, melanoma, 144 hours
Method: as §1

[10] = tested on: IA-LM; details: large cell lung carcinoma, 144 hours
Method: as §1

[11] = tested on: KMBC-2; details: KMBC-2, bladder carcinoma; 144 hours
Method: as §1

[12] = tested on: NCI-H441; details: Homo sapiens; NCI-H441, papillary adenocarcinoma of the lung; 144 hours
Method: as §1

[13] = tested on: SK-MES-1; details: Homo sapiens; SK-MES-1, squamous cell lung carcinoma; 144 hours
Method: as §1

[14] = tested on: COR-L105; details: Homo sapiens; COR-L105, lung adenocarcinoma; 144 hours
Method: as §1

[15] = tested on: SW900; details: Homo sapiens; SW900, squamous cell lung carcinoma; 144 hours
Method: as §1

[16] = tested on: MCAS; details: ovarian mucinous cystadenocarcinoma, 144 hours
Method: as §1

[17] = tested on: COLO 680N; details: Homo sapiens, esophageal squamous cell carcinoma, 144 hours
Method: as §1

[18] = tested on: CAL-27; details: Homo sapiens; CAL-27, tongue squamous cell carcinoma; 144 hours
Method: as §1

[19] = tested on: SF126; details: Homo sapiens, SF-126; SF126, glioblastoma multiforme; 144 hours
Method: as §1

[20] = tested on: ACC-MESO-1; details: ACC-MESO-1, mesothelioma; 144 hours
Method: as §1

[21] = tested on: SCC-25; details: Homo sapiens; SCC-25, tongue squamous cell carcinoma; 144 hours
Method: as §1

[22] = tested on: NCI-H2291; details: Homo sapiens; NCI-H2291, lung adenocarcinoma; 144 hours
Method: as §1

[23] = tested on: NCI-H2066; details: NCI-H2066, squamous cell lung carcinoma; 144 hours
Method: as §1

[24] = tested on: NCI-H1648; details: Homo sapiens; NCI-H1648, lung adenocarcinoma; 144 hours
Method: as §1

[25] = tested on: GCT; details: Homo sapiens, undifferentiated pleiomorphic sarcoma, 144 hours
Method: as §1

Measured: GI50

C[C@@H](COCCC(=O)N1CCN(c2ncc(C(F)(F)F)cn2)CC1)Nc1cn[nH]c(=O)c1C(F)(F)F [Compound 1, 5-[[(2S)-1-(3-oxo-3-[4-[5-(trifluoromethyl)pyrimidin-2-yl]piperazin-1-yl]propoxy)propan-2-yl]amino]-4-(trifluoromethyl)-2,3-dihydropyridazin-3-one]
< 100 nM: [1] | [2] | [3] | [7] | [10] | [21] | [25]
100 to 1000 nM: [14] | [15]
≥ 1000 nM: all other assays above

— US12371421B2, “Solid forms of a PARP7 inhibitor” (Ribon Therapeutics, Inc., priority 2019, dated 2025)
